Patent US20100137313A1 (ASTRAZENECA AB, priority 2008, published 2010)

Target: S. pneumoniae Topoisomerase IV ATPase (ParE) (Streptococcus pneumoniae serotype 4, UniProt Q59961)
Test: S. pneumoniae Topoisomerase IV ATPase inhibition
Assay type: biochemical
Conditions: values marked * are an average of two or more data points, read-out: % Inh (13 μM) of S. pneumoniae Topoisomerase IV ATPase
Experimental: S. pneumoniae Topoisomerase IV ATPase Inhibition Activity: Compounds may be tested for inhibition of S. pneumoniae ParE ATPase activity using an ammonium molybdate/malachite green-based phosphate detection assay (Lanzetta, P. A., L. J. Alvarez, P. S. Reinach, and O. A. Candia, 1979, 100: 95-97). Assays are performed in multiwell plates in 30 μl reactions containing: 20 mM Tris buffer pH 8.0, 50 mM ammonium acetate, 8.0 mM magnesium chloride, 0.5 mM ethylenediaminetetraacetic acid, 5% glycerol, 5 mM 1,4-Dithio-DL-threitol, 0.005% Brij-35, 5 μg/ml sheared salmon sperm DNA, 1.25 nM S. pneumoniae ParE, 160 μM ATP, and test compound in dimethylsulfoxide. Reactions are quenched with 30 μl of ammonium molybdate/malachite green detection reagent containing 1.2 mM malachite green hydrochloride, 8.5 mM ammonium molybdate tetrahydrate, and 1 M hydrochloric acid. Plates are read in an absorbance plate reader at 650 nm and percent inhibition values are calculated using dimethylsulfoxide (2%)-containing reactions as 0% inhibition and EDTA-containing ([…]) reactions as 100% inhibition controls. An IC50 measurement of compound potency for each compound can be determined from reactions performed in the presence of 10 different compound concentrations.
Many of the compounds of the invention were tested in an assay substantially similar to the assays described above for measuring the inhibition of E.coli GyrB ATPase, E. coli Topoisomerase IV ATPase, S. aureus GyrB ATPase, and S. pneumoniae Topoisomerase IV ATPase, and had IC50 values of <200 μM in one or more assays.

S. pneumoniae Topoisomerase IV ATPase (ParE), sequence (Q59961 whole entry): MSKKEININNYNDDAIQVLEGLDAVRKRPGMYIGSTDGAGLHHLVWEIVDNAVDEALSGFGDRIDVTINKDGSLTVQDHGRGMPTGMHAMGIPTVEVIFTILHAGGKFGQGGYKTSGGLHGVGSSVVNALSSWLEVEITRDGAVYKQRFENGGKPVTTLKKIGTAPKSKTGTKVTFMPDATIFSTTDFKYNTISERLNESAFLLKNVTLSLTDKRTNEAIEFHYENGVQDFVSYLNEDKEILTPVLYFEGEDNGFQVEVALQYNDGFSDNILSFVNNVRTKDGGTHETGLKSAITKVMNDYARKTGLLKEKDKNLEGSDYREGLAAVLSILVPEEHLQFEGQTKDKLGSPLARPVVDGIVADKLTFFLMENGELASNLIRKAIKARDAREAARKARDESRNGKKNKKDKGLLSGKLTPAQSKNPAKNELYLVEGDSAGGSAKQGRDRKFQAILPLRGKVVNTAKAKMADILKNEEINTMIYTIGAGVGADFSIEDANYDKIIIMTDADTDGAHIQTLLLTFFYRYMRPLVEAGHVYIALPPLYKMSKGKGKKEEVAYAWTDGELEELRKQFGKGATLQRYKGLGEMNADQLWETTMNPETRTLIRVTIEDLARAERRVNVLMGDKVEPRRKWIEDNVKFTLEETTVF

SMILES	inhibition at 13 µM [%]
CN(C)CCCNc1nc(Nc2ccc(F)c(Cl)c2)ncc1-c1cccc(/C=C/C(=O)O)c1 [Example 29, (2E)-3-[3-(2-[(3-chloro-4-fluorophenyl)amino]-4-{[3-(dimethylamino)propyl]-amino}pyrimidin-5-yl)phenyl]prop-2-enoic acid]	99.7
CN(C)CCCNc1nc(Nc2ccc(F)c(Cl)c2)ncc1-c1cccc(C(=O)O)c1 [Example 31, 3-(2-[(3-chloro-4-fluorophenyl)amino]-4-{[3-(dimethylamino)propyl]-amino}pyrimidin-5-yl)benzoic acid]	86
CN(C)CCCNc1nc(Nc2ccc(F)c(Cl)c2)ncc1-c1cncnc1 [Example 32, N^2-(3-chloro-4-fluorophenyl)-N^4-[3-(dimethylamino)propyl]-5,5′-bipyrimidine-2,4-diamine]	91.1
CCCNc1nc(Nc2ccc(F)c(Cl)c2)ncc1-c1cncnc1 [Example 33, N^2-(3-chloro-4-fluorophenyl)-N^4-propyl-5-pyrimidin-5-ylpyrimidine-2,4-diamine]	81
O=C1CCCN1CCCNc1nc(Nc2ccc(F)c(Cl)c2)ncc1-c1cncnc1 [Example 34, 1-[3-[[2-[(3-chloro-4-fluorophenyl)amino]-5-pyrimidin-5-ylpyrimidin-4-yl]amino]propyl] pyrrolidin-2-one]	84.3
CC(=O)N1CCC(Nc2nc(Nc3ccc(F)c(Cl)c3)ncc2-c2cncnc2)CC1 [Example 35, 1-[4-[[2-[(3-chloro-4-fluorophenyl)amino]-5-pyrimidin-5-ylpyrimidin-4-yl]amino]piperidin-1-yl]ethanone]	58.3
CC(=O)NCCNc1nc(Nc2ccc(F)c(Cl)c2)ncc1-c1cncnc1 [Example 37, N-[2-[[2-[(3-chloro-4-fluorophenyl)amino]-5-pyrimidin-5-ylpyrimidin-4-yl]amino]ethyl] acetamide]	76.3
Fc1ccc(Nc2ncc(-c3cncnc3)c(NCc3ccccn3)n2)cc1Cl [Example 38, N^2-(3-chloro-4-fluorophenyl)-N^4-(pyridin-2-ylmethyl)-5-pyrimidin-5-ylpyrimidine-2,4-diamine]	62.3
Fc1ccc(Nc2ncc(-c3cncnc3)c(NCc3cccnc3)n2)cc1Cl [Example 39, N^2-(3-chloro-4-fluorophenyl)-N^4-(pyridin-3-ylmethyl)-5-pyrimidin-5-ylpyrimidine-2,4-diamine]	63
Fc1ccc(Nc2ncc(-c3cncnc3)c(NCc3ccncc3)n2)cc1Cl [Example 40, N^2-(3-chloro-4-fluorophenyl)-N^4-(pyridin-4-ylmethyl)-5-pyrimidin-5-ylpyrimidine-2,4-diamine]	72.4
CC(C)(C)OC(=O)NCCNc1nc(Nc2ccc(F)c(Cl)c2)ncc1-c1cncnc1 [Example 41, tert-butyl N-[2-[[2-[(3-chloro-4-fluorophenyl)amino]-5-pyrimidin-5-ylpyrimidin-4-yl]amino]ethyl] carbamate]	72.7
NC(=O)CCNc1nc(Nc2ccc(F)c(Cl)c2)ncc1-c1cncnc1 [Example 42, 3-[[2-[(3-chloro-4-fluorophenyl)amino]-5-pyrimidin-5-ylpyrimidin-4-yl]amino]propanamide]	77.5
Fc1ccc(Nc2ncc(-c3cncnc3)c(NCCN3CCOCC3)n2)cc1Cl [Example 43, N^2-(3-chloro-4-fluorophenyl)-N^4-(2-morpholin-4-ylethyl)-5-pyrimidin-5-ylpyrimidine-2,4-diamine]	74.3
Fc1ccc(Nc2ncc(-c3cncnc3)c(NCCc3ccccn3)n2)cc1Cl [Example 44, N^2-(3-chloro-4-fluorophenyl)-N^4-(2-pyridin-2-ylethyl)-5-pyrimidin-5-ylpyrimidine-2,4-diamine]	78.4
Fc1ccc(Nc2ncc(-c3cncnc3)c(NCCc3cccnc3)n2)cc1Cl [Example 45, N^2-(3-chloro-4-fluorophenyl)-N^4-(2-pyridin-3-ylethyl)-5-pyrimidin-5-ylpyrimidine-2,4-diamine]	81.9
O=S1(=O)CCN(CCNc2nc(Nc3ccc(F)c(Cl)c3)ncc2-c2cncnc2)CC1 [Example 47, N^2-(3-chloro-4-fluorophenyl)-N^4-[2-(1,1-dioxo-1,4-thiazinan-4-yl)ethyl]-5-pyrimidin-5-ylpyrimidine-2,4-diamine]	74.8
O=S1(=O)CCN(CCCNc2nc(Nc3ccc(F)c(Cl)c3)ncc2-c2cncnc2)CC1 [Example 48, N^2-(3-chloro-4-fluorophenyl)-N^4-[3-(1,1-dioxo-1,4-thiazinan-4-yl)propyl]-5-pyrimidin-5-ylpyrimidine-2,4-diamine]	79.8

SMILES	inhibition at 13 µM [%]
Fc1ccc(Nc2ncc(-c3cncnc3)c(NCCCN3CCOCC3)n2)cc1Cl [Example 49, N^2-(3-chloro-4-fluorophenyl)-N^4-(3-morpholin-4-ylpropyl)-5-pyrimidin-5-ylpyrimidine-2,4-diamine]	85.6
COCCNc1nc(Nc2ccc(F)c(Cl)c2)ncc1-c1cncnc1 [Example 50, N^2-(3-chloro-4-fluorophenyl)-N^4-(2-methoxyethyl)-5-pyrimidin-5-ylpyrimidine-2,4-diamine]	77.8
Fc1ccc(Nc2ncc(-c3cncnc3)c(NCC3CCCO3)n2)cc1Cl (stereo not shown) [Example 51, N-(3-chloro-4-fluorophenyl)-N′-(oxolan-2-ylmethyl)-5-pyrimidin-5-ylpyrimidine-2,4-diamine]	88.8
CC(C)OCCNc1nc(Nc2ccc(F)c(Cl)c2)ncc1-c1cncnc1 [Example 52, N^2-(3-chloro-4-fluorophenyl)-N4-(2-propan-2-yloxyethyl)-5-pyrimidin-5-ylpyrimidine-2,4-diamine]	69.5
Fc1ccc(Nc2ncc(-c3cncnc3)c(NCc3ccco3)n2)cc1Cl [Example 53, N^2-(3-chloro-4-fluorophenyl)-N^4-(furan-2-ylmethyl)-5-pyrimidin-5-ylpyrimidine-2,4-diamine]	70.5
CCOC(=O)CNc1nc(Nc2ccc(F)c(Cl)c2)ncc1-c1cncnc1 [Example 54, ethyl 2-[[2-[(3-chloro-4-fluorophenyl)amino]-5-pyrimidin-5-ylpyrimidin-4-yl]amino]acetate]	77.5
Fc1ccc(Nc2ncc(-c3cncnc3)c(NCCOc3ccccc3)n2)cc1Cl [Example 55, N^2-(3-chloro-4-fluorophenyl)-N^4-(2-phenoxyethyl)-5-pyrimidin-5-ylpyrimidine-2,4-diamine]	44.4
COC(=O)[C@@H](C)Nc1nc(Nc2ccc(F)c(Cl)c2)ncc1-c1cncnc1 [Example 56, methyl (2R)-2-[[2-[(3-chloro-4-fluorophenyl)amino]-5-pyrimidin-5-ylpyrimidin-4-yl]amino]propanoate]	46.3
Cc1cnc(CNc2nc(Nc3ccc(F)c(Cl)c3)ncc2-c2cncnc2)cn1 [Example 58, N^2-(3-chloro-4-fluorophenyl)-N^4-[(5-methylpyrazin-2-yl)methyl]-5-pyrimidin-5-ylpyrimidine-2,4-diamine]	58
CC(C)Nc1nc(Nc2ccc(F)c(Cl)c2)ncc1-c1cncnc1 [Example 59, N^2-(3-chloro-4-fluorophenyl)-N^4-propan-2-yl-5-pyrimidin-5-ylpyrimidine-2,4-diamine]	51.8
OC1CCN(c2nc(Nc3ccc(F)c(Cl)c3)ncc2-c2cncnc2)CC1 [Example 60, 1-[2-[(3-chloro-4-fluorophenyl)amino]-5-pyrimidin-5-ylpyrimidin-4-yl]piperidin-4-ol]	72.3
OCC1CCCN(c2nc(Nc3ccc(F)c(Cl)c3)ncc2-c2cncnc2)C1 (stereo not shown) [Example 61, [1-[2-[(3-chloro-4-fluorophenyl)amino]-5-pyrimidin-5-ylpyrimidin-4-yl]piperidin-3-yl]methanol]	74.8
Fc1ccc(Nc2ncc(-c3cncnc3)c(N3CCC(N4CCOCC4)CC3)n2)cc1Cl [Example 62, N-(3-chloro-4-fluorophenyl)-4-(4-morpholin-4-ylpiperidin-1-yl)-5-pyrimidin-5-ylpyrimidin-2-amine]	71
CNC(=O)C1CCN(c2nc(Nc3ccc(F)c(Cl)c3)ncc2-c2cncnc2)CC1 [Example 63, 1-[2-[(3-chloro-4-fluorophenyl)amino]-5-pyrimidin-5-ylpyrimidin-4-yl]-N-methylpiperidine-4-carboxamide]	69.9
Fc1ccc(Nc2ncc(-c3cncnc3)c(N3CCC(F)CC3)n2)cc1Cl [Example 64, N-(3-chloro-4-fluorophenyl)-4-(4-fluoropiperidin-1-yl)-5-pyrimidin-5-ylpyrimidin-2-amine]	65.4
COC1CCN(c2nc(Nc3ccc(F)c(Cl)c3)ncc2-c2cncnc2)CC1 [Example 65, N-(3-chloro-4-fluorophenyl)-4-(4-methoxypiperidin-1-yl)-5-pyrimidin-5-ylpyrimidin-2-amine]	75.9
OC1CCN(c2nc(Nc3ccc(F)c(Cl)c3)ncc2-c2cncnc2)C1 (stereo not shown) [Example 66, 1-[2-[(3-chloro-4-fluorophenyl)amino]-5-pyrimidin-5-ylpyrimidin-4-yl]pyrrolidin-3-ol]	62.1
